{
  "source": "ChEMBL document CHEMBL1201862",
  "about": "“PubChem BioAssay data set” (2004)",
  "experiment_in_all_cases": "growth of human tumour cells (NCI), 48 h",
  "key": {"Hs-578T": {"system": "Hs-578T"}, "M19-MEL": {"system": "M19-MEL"}, "SNB-78": {"system": "SNB-78"}, "DLD-1": {"system": "DLD-1"}, "LXFL 529": {"system": "LXFL 529"}, "DMS-273": {"system": "DMS-273"}, "XF498": {"system": "XF498"}, "HOP-18": {"system": "HOP-18"}},
  "note": "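96-well plates; 48 h exposure; 5 concentrations. Endpoints by linear interpolation between flanking doses. Not reached: highest tested concentration assigned. Abbreviation: GI50, concentration required for 50% inhibition of growth.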 Activity calls are given as the source filed them. Rule as the data show it: active = GI50 up to about 1.1 µM and inactive = higher.",
  "data": [
    {"compound": "OC1C2CN3CCN(C2)CC1(c1ccccc1)C3", "note": "(stereo not drawn)", "values": [
      {"measurement": "GI50", "setting": "Hs-578T", "value": "> 100 µM (inactive)"}
    ]},
    {"compound": "CSS(C)(=O)=O", "values": [
      {"measurement": "GI50", "setting": "Hs-578T", "value": "49.2 µM (inactive)"}
    ]},
    {"compound": "CCCNC(=O)NNC(=O)c1c[nH]c2nc(C)ccc2c1=O", "values": [
      {"measurement": "GI50", "setting": "Hs-578T", "value": "> 100 µM (inactive)"}
    ]},
    {"compound": "CSC1(SC2=NCCN2)SC2(NCCN2)S1", "values": [
      {"measurement": "GI50", "setting": "Hs-578T", "value": "24.3 µM (inactive)"}
    ]},
    {"compound": "O=C1c2ccccc2-n2nnnc2C2CSCN12", "note": "(stereo not drawn)", "values": [
      {"measurement": "GI50", "setting": "Hs-578T", "value": "> 100 µM (inactive)"}
    ]},
    {"compound": "O=C1C(Cl)C(c2ccccc2Cl)N1n1cnc2ccccc2c1=O", "note": "(stereo not drawn)", "values": [
      {"measurement": "GI50", "setting": "M19-MEL", "value": "> 100 µM (inactive)"},
      {"measurement": "GI50", "setting": "SNB-78", "value": "> 100 µM (inactive)"},
      {"measurement": "GI50", "setting": "DLD-1", "value": "61.7 µM (inactive)"},
      {"measurement": "GI50", "setting": "LXFL 529", "value": "49.1 µM (inactive)"},
      {"measurement": "GI50", "setting": "DMS-273", "value": "26 µM (inactive)"},
      {"measurement": "GI50", "setting": "XF498", "value": "67.6 µM (inactive)"}
    ]},
    {"compound": "O=C(Cc1nc2ccccc2s1)C(=O)Nc1cccc(C(F)(F)F)c1", "values": [
      {"measurement": "GI50", "setting": "M19-MEL", "value": "> 100 µM (inactive)"},
      {"measurement": "GI50", "setting": "SNB-78", "value": "> 100 µM (inactive)"},
      {"measurement": "GI50", "setting": "HOP-18", "value": "> 100 µM (inactive)"},
      {"measurement": "GI50", "setting": "DLD-1", "value": "> 100 µM (inactive)"},
      {"measurement": "GI50", "setting": "LXFL 529", "value": "> 100 µM (inactive)"},
      {"measurement": "GI50", "setting": "DMS-273", "value": "> 100 µM (inactive)"}
    ]},
    {"compound": "COc1ccc2nc3c([N+](=O)[O-])ccc(NCCN(C)C)c3c(N)c2c1", "values": [
      {"measurement": "GI50", "setting": "Hs-578T", "value": "2.62 µM (inactive)"}
    ]},
    {"compound": "O=C(c1ccccc1)c1c(CC(O)c2ccccc2)n(C(=O)c2ccccc2)c2ccccc12", "note": "(stereo not drawn)", "values": [
      {"measurement": "GI50", "setting": "M19-MEL", "value": "59 µM (inactive)"},
      {"measurement": "GI50", "setting": "DLD-1", "value": "40.9 µM (inactive)"},
      {"measurement": "GI50", "setting": "LXFL 529", "value": "39.5 µM (inactive)"},
      {"measurement": "GI50", "setting": "DMS-273", "value": "43 µM (inactive)"},
      {"measurement": "GI50", "setting": "XF498", "value": "> 100 µM (inactive)"}
    ]},
    {"compound": "C=CC(C)CCC(C/C=C(\\C)CCCC(C)C)C(=C)CCCC(C)C", "note": "(stereo not drawn)", "values": [
      {"measurement": "GI50", "setting": "Hs-578T", "value": "> 100 µM (inactive)"}
    ]},
    {"compound": "CN(c1ccc(Cl)cc1)S(=O)(=O)c1ccc([N+](=O)[O-])cc1", "values": [
      {"measurement": "GI50", "setting": "Hs-578T", "value": "> 100 µM (inactive)"}
    ]},
    {"compound": "C/C(=N/NC(=S)Nc1ccc([N+](=O)[O-])cc1)c1cccc(/C(C)=N\\NC(=S)Nc2ccc([N+](=O)[O-])cc2)n1", "values": [
      {"measurement": "GI50", "setting": "Hs-578T", "value": "3.9 µM (inactive)"}
    ]},
    {"compound": "O=S(=O)(O)c1cc(/N=N/c2c(O)ccc3ccccc23)cc2c(S(=O)(=O)O)cccc12", "values": [
      {"measurement": "GI50", "setting": "Hs-578T", "value": "> 100 µM (inactive)"}
    ]},
    {"compound": "O=C1N=CN=C2C=CC(Cl)=C(I)C12", "note": "(stereo not drawn)", "values": [
      {"measurement": "GI50", "setting": "M19-MEL", "value": "> 100 µM (inactive)"},
      {"measurement": "GI50", "setting": "DLD-1", "value": "58.5 µM (inactive)"},
      {"measurement": "GI50", "setting": "LXFL 529", "value": "> 100 µM (inactive)"},
      {"measurement": "GI50", "setting": "DMS-273", "value": "73.8 µM (inactive)"},
      {"measurement": "GI50", "setting": "XF498", "value": "51.1 µM (inactive)"}
    ]},
    {"compound": "Cc1ccc(Oc2ccc(C(=O)c3cccc(C(=O)c4ccc(Oc5ccc(C)cc5)cc4)n3)cc2)cc1", "values": [
      {"measurement": "GI50", "setting": "SNB-78", "value": "> 100 µM (inactive)"},
      {"measurement": "GI50", "setting": "HOP-18", "value": "> 100 µM (inactive)"},
      {"measurement": "GI50", "setting": "DLD-1", "value": "> 100 µM (inactive)"},
      {"measurement": "GI50", "setting": "LXFL 529", "value": "> 100 µM (inactive)"},
      {"measurement": "GI50", "setting": "DMS-273", "value": "> 100 µM (inactive)"}
    ]},
    {"compound": "O=S(=O)(N/N=C1\\CC2CCC1C2)c1ccccc1", "note": "(stereo not drawn)", "values": [
      {"measurement": "GI50", "setting": "Hs-578T", "value": "> 100 µM (inactive)"}
    ]},
    {"compound": "O=C1/C(=C\\c2cccc(Oc3ccccc3)c2)SC(c2ccccc2)N1c1cc(Cl)ccc1Cl", "note": "(stereo not drawn)", "values": [
      {"measurement": "GI50", "setting": "Hs-578T", "value": "24.4 µM (inactive)"}
    ]},
    {"compound": "O=[N+]([O-])C1C2C=CC(C2)[C@H]1c1ccc(Cl)cc1Cl", "note": "(stereo partly drawn)", "values": [
      {"measurement": "GI50", "setting": "M19-MEL", "value": "34.8 µM (inactive)"},
      {"measurement": "GI50", "setting": "SNB-78", "value": "48.4 µM (inactive)"},
      {"measurement": "GI50", "setting": "DLD-1", "value": "20.3 µM (inactive)"},
      {"measurement": "GI50", "setting": "LXFL 529", "value": "39.4 µM (inactive)"},
      {"measurement": "GI50", "setting": "DMS-273", "value": "46.5 µM (inactive)"},
      {"measurement": "GI50", "setting": "XF498", "value": "43.7 µM (inactive)"}
    ]},
    {"compound": "CC(C)(C)O/N=C/c1cc(NC(=S)c2ccsc2)ccc1Cl", "values": [
      {"measurement": "GI50", "setting": "Hs-578T", "value": "23.3 µM (inactive)"}
    ]},
    {"compound": "CC(=O)N(C)c1ccc(Nc2ccnc3ccc4nn(C)nc4c23)cc1", "values": [
      {"measurement": "GI50", "setting": "Hs-578T", "value": "17.3 µM (inactive)"}
    ]},
    {"compound": "Cc1ccc2c(c1)C(=O)C1(C2)Cc2ccc(C)cc2C1=O", "values": [
      {"measurement": "GI50", "setting": "Hs-578T", "value": "> 100 µM (inactive)"}
    ]}
  ]
}
